Target: T1, Alpha 2C (Homo sapiens, UniProt P18825)
T1 sequence (P18825 1-462): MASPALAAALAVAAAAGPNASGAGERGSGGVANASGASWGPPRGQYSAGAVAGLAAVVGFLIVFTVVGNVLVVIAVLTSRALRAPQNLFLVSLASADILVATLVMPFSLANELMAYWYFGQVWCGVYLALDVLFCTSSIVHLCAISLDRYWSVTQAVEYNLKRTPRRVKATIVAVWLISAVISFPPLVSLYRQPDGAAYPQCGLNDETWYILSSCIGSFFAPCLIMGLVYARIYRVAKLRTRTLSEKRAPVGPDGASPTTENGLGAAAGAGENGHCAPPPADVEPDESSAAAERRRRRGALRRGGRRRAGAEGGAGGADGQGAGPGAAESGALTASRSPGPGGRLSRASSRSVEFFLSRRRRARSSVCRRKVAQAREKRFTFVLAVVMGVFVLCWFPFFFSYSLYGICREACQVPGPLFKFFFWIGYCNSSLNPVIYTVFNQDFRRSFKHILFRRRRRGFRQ
Assay: Alpha 2C adrenergic receptor functional activity (procedure of U.S. 60/911,442)
Format: cell-based
Text: U.S. Provisional Patent Application Ser. No. 60/911,442, filed Apr. 12, 2007, describes the procedure used to obtain the data in the table below. That procedure is incorporated by reference herein.

Alpha 2C EC50: not active
Structure (SMILES): CCC[C@@H]1CCCC[C@H]1NC(=O)NCCF [1-(2-Fluoro-ethyl)-3-(2R-propyl-1R-cyclohexyl)-urea]

Reference: patent US20110028559A1, “SUBSTITUTED FLUOROETHYL UREAS AS ALPHA 2 ADRENERGIC AGENTS” (priority 2007, published 2011)
